≈ marks a conversion by molar mass, not a printed value.
Experiment: Kinetic solubility
Format: physicochemical
Experimental: Kinetic solubility, parallel artificial membrane permeability assay (PAMPA) permeability, and stability in the mouse liver microsome assay were performed by BioDuro (Shanghai, China) according to standard protocols.

With `COc1ccc2nccc(NC(=O)C3CCN(CCc4ccc(C(F)(F)F)cc4)CC3)c2n1` [844-TFM] the solubility (pH 7.4) was 390 µM (≈ 179 µg/mL) and the solubility (simulated gastric fluid, pH 2) was 446 µM (≈ 205 µg/mL).

Reference: paper PMC8284461, “Piperidine-4-Carboxamides Target DNA Gyrase in Mycobacterium abscessus” (Antimicrobial Agents and Chemotherapy, 2021)
